Data: US20250059203A1, “USE OF ARISTOLOXAZINE C HAVING ANTICANCER ACTIVITY” (KOREA INSTITUTE OF ORIENTAL MEDICINE, priority 2021, published 2025)
Blank lines part the entries; values can stand above or below the compound they belong to.

How the values were obtained:
[1] = tested on: SKMEL5 (melanoma); assay: MTT assay, SKMEL5 cells; format: cell-based, human
Method: (§1) In order to evaluate the anticancer activity of aristoloxazine isolated in Example 1, the cytotoxic activity against 14 human cancer cell lines including SKMEL5 (melanoma), A431 (non-melanoma skin), PC3 (prostate), A549 (lung), HT1080 (fibrosarcoma), OVCAR3 (ovary), HCT116 (colon), AGS (stomach), HepG2 (liver), MCF7 (breast cancer), K562 (leukemia), U-87 (glioma), ACHN (renal adenocarcinoma) and Caki (clear cell kidney cancer) was evaluated.
(§2) Cells were seeded (1 to 2.5×10^3 cells per well) in 96-well plates and then allowed to settle overnight. Next, the cells were treated with different doses of the compound for 24 hours, 48 hours or 72 hours in a 37° C. CO2 incubator, and 20 μL of MTT ((4,5-dimethylthiazol-2-yl)-2,5-diphenyltetrazolium bromide reagent (Sigma-Aldrich, Inc., St. Louis, MO, USA) was added to each well. After 1 to 2 hours, the medium was discarded, and 100 μL of DMSO (dimethyl sulfoxide, VWR Life Science, Ohio, USA) was added, and then, absorbance was measured at 570 nm by using a Multiskan Skyhigh microplate spectrophotometer (Thermo Scientific, Singapore). 5-FU was used as a positive control. The extract in Table 2 was a 70% ethanol Asarum heterotropoides root extract obtained in the process of preparing the Asarum heterotropoides root fraction of Example 1-2.

[2] = tested on: A431 (non-melanoma skin cancer); assay: MTT assay, A431 cells; format: cell-based, human
Method: as §1, §2

[3] = tested on: A549 (lung cancer); assay: MTT assay, A549 cells; format: cell-based, human; conditions: A549, 72 h
Method: as §1, §2

[4] = tested on: HT1080 (fibrosarcoma); assay: MTT assay, HT1080 cells; format: cell-based, human
Method: as §1, §2

[5] = tested on: HCT116 (colon cancer); assay: MTT assay, HCT116 cells; format: cell-based, human
Method: as §1, §2

[6] = tested on: AGS (stomach cancer); assay: MTT assay, AGS cells; format: cell-based, human; conditions: 72 h
Method: as §1, §2

[7] = tested on: K562 (leukemia); assay: MTT assay, K562 cells; format: cell-based, human; conditions: K562, 72 h
Method: as §1, §2

[8] = tested on: U-87 (glioma); assay: MTT assay, U-87 cells; format: cell-based, human; conditions: U-87, 72 h
Method: as §1, §2

[9] = tested on: ACHN (renal adenocarcinoma); assay: MTT assay, ACHN cells; format: cell-based, human; conditions: 72 h
Method: as §1, §2

[10] = tested on: Caki (clear cell kidney cancer); assay: MTT assay, Caki cells; format: cell-based, human; conditions: 72 h
Method: as §1, §2

[11] = tested on: PC3 (prostate cancer); assay: MTT assay, PC3 cells; format: cell-based; conditions: Homo sapiens, PC-3, PC3, 72 h
Method: as §1, §2

[12] = tested on: OVCAR3 (ovarian cancer); assay: MTT assay, OVCAR3 cells; format: cell-based; conditions: Homo sapiens, OVCAR-3, OVCAR3, 72 h
Method: as §1, §2

[13] = tested on: HepG2 (liver cancer); assay: MTT assay, HepG2 cells; format: cell-based; conditions: Homo sapiens, HepG2, 72 h
Method: as §1, §2

[14] = tested on: MCF7 (breast cancer); assay: MTT assay, MCF7 cells; format: cell-based; conditions: Homo sapiens, MCF7, 72 h
Method: as §1, §2

[15] = tested on: 14 human cancer cell lines; assay: MTT assay, panel of all cancer cell lines tested; format: cell-based; conditions: span over all cancer cell lines tested, read-out: IC50 values, cytotoxicity against all cells that were tested
Method: as §1, §2

IC50 ([1]; SKMEL5, 72 h): 8400 ± 700 nM
IC50 ([2]; A431, 72 h): 1000 ± 30 nM
IC50 [3]: 2400 ± 100 nM
IC50 ([4]; HT1080, 72 h): 4900 ± 100 nM
IC50 ([5]; HCT116, 72 h): 3500 ± 100 nM
IC50 [6]: 3200 ± 100 nM
IC50 [7]: 6700 ± 200 nM
IC50 [8]: 9000 ± 200 nM
IC50 [9]: 9100 ± 2900 nM
IC50 [10]: 9900 ± 200 nM
SMILES: O=c1[nH]cc(F)c(=O)[nH]1 [Compound 5-FU, 5-FU, reference compound]

SMILES: COc1cccc2c1[C@H](SCC(N)=O)c1noc(=O)c3cc4c(c-2c13)OCO4 [Aristoloxazine C]
IC50 ([1]; Homo sapiens, SK-MEL-5, SKMEL5, 72 h): 72.1 ± 0.4 nM
IC50 ([2]; Homo sapiens, A-431, A431, 72 h): 85.7 ± 2.5 nM
IC50 [11]: 84.3 ± 2 nM
IC50 ([3]; Homo sapiens): 25.7 ± 0.7 nM
IC50 ([4]; Homo sapiens, HT-1080, HT1080, 72 h): 143 ± 2.3 nM
IC50 [12]: 374 ± 12 nM
IC50 ([5]; Homo sapiens, HCT-116, HCT116, 72 h): 29.3 ± 0.2 nM
IC50 ([6]; Homo sapiens): 22.1 ± 0.8 nM
IC50 [13]: 149.2 ± 0.7 nM
IC50 [14]: 46.4 ± 2 nM
IC50 ([7]; Homo sapiens): 78.6 ± 2 nM
IC50 ([8]; Homo sapiens, U-87 MG): 57.8 ± 5.5 nM
IC50 ([9]; Homo sapiens): 17.8 ± 0.1 nM
IC50 ([10]; Homo sapiens): 65.4 ± 2.9 nM
IC50 [15]: 17.8 to 374 nM
